Measurements taken from patent publication US8398987B2, “Use of platelet glycopeptide IIIa epitopes in the treatment of immune thrombocytopenic purpura” (The University Court of the University of Aberdeen, priority 2007, dated 2013).
“Also recorded” adds a separate entry of the source.

Key:
Format in all cases: cell-based, human
[1] = system: PBMC from healthy control donors; test: T cell proliferation assay, PBMC from healthy control donors
From the text: (§1) The human platelet membrane GPIIIa amino acid sequence (Genebank Accession no: M35999) was synthesized (Pepceuticals, Nottingham, UK) as a complete panel of 86 15-mer peptides, overlapping by 5-10 amino acids (Table 3). Peptide purity was monitored by amino acid analysis and mass spectrometry as reported previously by Barker R N et al in Blood 1997; 90:2701-2715, Scott L et al in Blood 2000; 96:4011-4019 and Cairns L S et al in J Am Soc Nephrol 2003; 14:2801-2812. The peptides were used for stimulation of T cells at the previously determined optimum concentration of […] in culture.
(§2) The antigen mycobacterial purified protein derivative (PPD) (Statens Serumintitut, Denmark) was added to cultures at […] to stimulate positive control recall T cell responses. Concanavalin A (Con A) (Sigma, Poole, Dorset, UK) was used at […] as a positive control T cell mitogen.
Mononuclear cells were recovered from anti-coagulated samples of peripheral blood from AITP patients and control donors by density gradient centrifugation (Lymphoprep; Nycomed, Denmark). Cell viability determined by trypan blue exclusion was greater than 90% in all samples. […]

[2] = system: HLA-class II molecules (HLA-DR, -DQ, -DP); test: HLA restriction of PBMC proliferating in response to GPIIIa peptides (blocking antibodies); details: PBMC from four AITP patients
Experimental: To determine the HLA Class II restriction of proliferating T cells, […] anti-DR, anti-DQ or anti-DP blocking monoclonal antibodies (Pharmingen, Oxon, UK) were added to replicate cultures before stimulation.
Dominant peptides 2(aa6-20), 47 (aa361-375), 53 (aa421-435) and 82 (aa711-725) were selected for these experiments and used to stimulate PBMC from four AITP patients, in the presence or absence of anti-DP, -DQ or DR. Representative results from one patient are illustrated in FIG. 7.

PBMC from AITP patients = test: T cell proliferation assay, PBMC from AITP patients stimulated with GPIIIa peptides; parameters: PBMC proliferation to control recall antigen or mitogen: dose or concentration left out as unconfirmed; details: for PBMC proliferation in serial samples: patient AITP22, three occasions over 56 weeks (presentation, 44 weeks, 56 weeks); for AITP Patients with PBMC Response to Peptide, No High Affinity DR Expressed: patients not expressing an HLA-DR type predicted to bind the peptide with high affinity; for AITP Patients with PBMC Response to Peptide, High Affinity DR Expressed: patients expressing an HLA-DR type predicted to bind the peptide with high affinity
From the text: as §1, §2
Mononuclear cells were recovered from anti-coagulated samples of peripheral blood from AITP patients and control donors by density gradient centrifugation (Lymphoprep; Nycomed, Denmark). Cell viability determined by trypan blue exclusion was greater than 90% in all samples.
Assays of T cell proliferation were carried out, as described by Scott L et al in Blood 2000; 96:4011-4019, Cairns L S et al in J Am Soc Nephrol 2003; 14:2801-2812 and Sukati H et al in Transfusion 2005; 45:1165-1177, under culture conditions designed to favor responses by previously activated T cells, rather than primary responses. Briefly, PBMC were cultured at 1.25×10^6 cells per mL in Alpha Modification of Eagle's Medium (Sigma, Poole, Dorset, UK) supplemented with 5% autologous serum. Synthetic GPIIIa peptides or control stimuli were added to cultures, which were incubated at 37° C. in a humidified atmosphere of 95% air and 5% CO2. T cell proliferation was estimated from the incorporation of 3H-thymidine in triplicate […] samples withdrawn from the cultures 5 days after stimulation, when recall responses peak. Results are presented either as the mean counts per minute (CPM)±SD of the triplicate samples, or as a stimulation index (SI) expressing the ratio of mean CPM in stimulated versus unstimulated control cultures. An SI>3 is interpreted as a positive response.

Substance: ALLIWKLLITIHDRK (listed as Homo sapiens) [peptide 82, GPIIIa residues 711-725]
- stimulation of PBMC from control donors [1]: only dominant sequence to induce proliferation by Th cells from control donors; also recorded: more than one control donor
- blocking of peptide-induced proliferation by anti-DP, -DQ or -DR [2]: blocked by at least one of the antibodies
- PBMC proliferation in serial samples (PBMC from AITP patients): initially absent but appeared at later time points
- AITP Patients with PBMC Response to Peptide, No High Affinity DR Expressed (PBMC from AITP patients): AITP12

Substance: FKDSLIVQVTFDCDC (listed as Homo sapiens) [compound 53, GPIIIa residues 421-435]
- blocking of peptide-induced proliferation by anti-DP, -DQ or -DR [2]: blocked by at least one of the antibodies
- PBMC proliferation in serial samples (PBMC from AITP patients): initially absent but appeared at later time points
- AITP Patients with PBMC Response to Peptide, High Affinity DR Expressed (PBMC from AITP patients): AITP11,; also recorded: AITP-12,; also recorded: AITP18,; also recorded: AITP20
- AITP Patients with PBMC Response to Peptide, No High Affinity DR Expressed (PBMC from AITP patients): AITP1,; also recorded: AITP8,; also recorded: AITP9,; also recorded: AITP10,; also recorded: AITP22,; also recorded: AITP24

Substance: DLPEELSLSFNATCL (listed as Homo sapiens) [compound 47, GPIIIa residues 361-375]
- blocking of peptide-induced proliferation by anti-DP, -DQ or -DR [2]: blocked by at least one of the antibodies
- PBMC proliferation in serial samples (PBMC from AITP patients): initially absent but appeared at later time points
- AITP Patients with PBMC Response to Peptide, High Affinity DR Expressed (PBMC from AITP patients): None

Substance: CECDDFSCVRYKGEM (listed as Homo sapiens) [compound 63, GPIIIa residues 521-535]
- Stimulatory Peptides (SI > 3) (PBMC from AITP patients; PBMC from patient AITP26): > 63

Substance: Concanavalin A [Con A, reference compound]
- PBMC proliferation to control recall antigen or mitogen (PBMC from AITP patients; PBMC from all patients and control donors): proliferated normally

Substance: GVLSMDSSNVLQLIV (listed as Homo sapiens) [compound 44, GPIIIa residues 331-345]
- AITP Patients with PBMC Response to Peptide, High Affinity DR Expressed (PBMC from AITP patients): AITP8,; also recorded: AITP24
- AITP Patients with PBMC Response to Peptide, No High Affinity DR Expressed (PBMC from AITP patients): AITP1,; also recorded: AITP3,; also recorded: AITP10,; also recorded: AITP18,; also recorded: AITP21,

Substance: TTRGVSSCQQCLAVS (listed as Homo sapiens) [peptide 2, GPIIIa residues 6-20]
- blocking of peptide-induced proliferation by anti-DP, -DQ or -DR [2]: blocked by at least one of the antibodies
- PBMC proliferation in serial samples (PBMC from AITP patients): elicited proliferation from all samples
- AITP Patients with PBMC Response to Peptide, High Affinity DR Expressed (PBMC from AITP patients): None

Substance: DDCVVRFQYYEDSSG (listed as Homo sapiens) [peptide 77, GPIIIa residues 661-675]
- PBMC proliferation in serial samples (PBMC from AITP patients): seen only in the second sample
- AITP Patients with PBMC Response to Peptide, High Affinity DR Expressed (PBMC from AITP patients): AITP11,; also recorded: AITP16,; also recorded: AITP22
- AITP Patients with PBMC Response to Peptide, No High Affinity DR Expressed (PBMC from AITP patients): AITP2,; also recorded: AITP8

Substance: PGSYGDTCEKCPTCP (listed as Homo sapiens) [compound 70, GPIIIa residues 591-605]
- AITP Patients with PBMC Response to Peptide, High Affinity DR Expressed (PBMC from AITP patients): None
- AITP Patients with PBMC Response to Peptide, No High Affinity DR Expressed (PBMC from AITP patients): AITP2,; also recorded: AITP7,; also recorded: AITP15,; also recorded: AITP20,; also recorded: AITP24
